# Results from article PMC8149334 (Cancer Chemotherapy and Pharmacology, 2021).
# Columns and labels:
# [1] = in vivo
# Protocol: Additional details of the bioanalytical methods are available in the Supplementary Appendix. Serial blood samples were collected in Parts 1 and 2 on day 1 of cycles 1, 2, and 3, and every 3 cycles thereafter (Supplementary Table 1). […] Concentration–time profiles were plotted for each analyte, and individual and mean plasma concentration–time data and pharmacokinetic parameters were summarized using descriptive statistics.
# Pharmacokinetic analyses were performed using the validated Phoenix™ WinNonlin® software (v6.2.1; […]). Noncompartmental analysis (model, Plasma; dose, extravascular) was applied for the pharmacokinetic analysis. The pharmacokinetics outputs were created using SAS v9.3 (SAS Institute Inc., Cary, NC, USA). Summary statistics, including N, mean, SD, % coefficient of variation, geometric mean, median, minimum, and maximum, were calculated for plasma concentration of each analyte at each time point and for the derived pharmacokinetic parameters.
# P-glycoprotein (P-gp) = details: cited from earlier work
structure (smiles),measurement,setting,value
O=C(O)c1cccc2cn(-c3ccc(C4CCCNC4)cc3)nc12 (stereo not drawn) [M1],Metabolite-to-parent ratios,[1],below 1
CO[C@H]1/C=C/O[C@@]2(C)Oc3c(C)c(O)c4c(O)c(c(/C=N/N5CCN(C)CC5)c(O)c4c3C2=O)NC(=O)/C(C)=C\C=C\[C@H](C)[C@H](O)[C@@H](C)[C@@H](O)[C@@H](C)[C@H](OC(C)=O)[C@@H]1C [Rifampin],Decrease in exposure of various P-gp substrates,"P-glycoprotein (P-gp); human, not told",≤ 67%
"CNC(=O)c1ccc(N2C(=S)N(c3cnc(C#N)c(C(F)(F)F)c3)C(=O)C23CCC3)cc1F [Apalutamide, apalutamide]",Reduction in AUC0–last of fexofenadine,P-glycoprotein (P-gp); patients with CRPC,30%
